Experimental data reported in PubChem BioAssay (NCI).
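Five compound concentrations were applied to cells in 96-well plates for 48 hours; endpoints were derived by simple linear interpolation of the resulting dose-response curve. Here, GI50 denotes the concentration required for 50% inhibition of growth. TGI marks complete inhibition of growth.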

Key:
Assay in all cases: growth of human tumour cells (NCI), 48 h
[1] = test system: BT-549 breast
[2] = test system: 786-0 renal
[3] = test system: CCRF-CEM leukemia
[4] = test system: OVCAR-4 ovarian
[5] = test system: UO-31 renal
[6] = test system: A549 NSCLC
[7] = test system: SK-MEL-5 melanoma
[8] = test system: MDA-MB-435
[9] = test system: SNB-19 CNS
[10] = test system: HL-60(TB) leukemia

| SMILES | GI50 [1] [µM] | TGI [1] [µM] | GI50 [2] [µM] | TGI [2] [µM] | GI50 [3] [µM] | TGI [3] [µM] | GI50 [4] [µM] | TGI [4] [µM] | GI50 [5] [µM] | TGI [5] [µM] | GI50 [6] [µM] | TGI [6] [µM] | GI50 [7] [µM] | TGI [7] [µM] | GI50 [8] [µM] | TGI [8] [µM] | GI50 [9] [µM] | TGI [9] [µM] | GI50 [10] [µM] | TGI [10] [µM] |
| --- | --- | --- | --- | --- | --- | --- | --- | --- | --- | --- | --- | --- | --- | --- | --- | --- | --- | --- | --- | --- |
| CC(C)(C)OC(=O)NCc1cccc(N=C=S)c1 | 19.2 | 44.2 | 21.6 | 44.1 | 21 | 55.9 | 16.7 | 51.8 | 15.4 | 38.8 | 28 | 72.1 | 14.9 | 28.4 | 18.5 | 63.1 | 17.6 | 44.7 | 28.2 | 69.8 |
| O=C1N(Cc2ccccc2Cl)c2ccccc2C12NN=C(c1cccc(Cl)c1)S2 (stereo not given) | 1.83 | 3.44 | 1.72 | 3.12 | 1.86 | 4.93 | 1.95 | 4.05 | 1.69 | 3.26 | 1.86 | 3.41 | 1.71 | 3.11 | 1.75 | 3.28 | 1.75 | 3.32 | 2.49 | 6.32 |
| NC(=O)c1sc(-n2cnc3cc(C(F)(F)F)ccc32)cc1OCc1ccccc1Br | > 25 | > 25 | 18.4 | > 25 | > 19.2 | > 25 | 9.02 | > 25 | > 25 | > 25 | > 25 | > 25 | > 16.5 | > 25 | > 16.5 | > 25 | > 19.1 | > 25 | > 25 | > 25 |
| COc1ccc(CCN2CCC(CN(C)Cc3cnn(-c4ccccc4)c3)CC2)cc1 | 14.5 | 36.2 | 12 | 24.6 | 21 | 78.6 | 7.75 | 57.5 | 3.37 | 16.2 | 19.4 | 48.9 | 3.96 | 14.9 | 2.54 | 6.8 | 21.2 | 66 | 20 | 48.4 |
| COc1ccc(-c2c3c(nc4n[nH]c(-c5ccc(Cl)cc5)c24)-c2ccccc2C(=O)C3=O)cc1 | 1.41 | 2.89 | 2.01 | 4.59 | 2.55 | > 100 | 1.7 | 15.9 | 1.17 | 2.9 | 1.83 | 3.54 | 1.51 | 2.84 | 1.54 | 3.43 | 1.83 | 3.7 | 3.08 | 28.1 |
| O=[N+]([O-])c1cc2no[n+]([O-])c2cc1N1CCCCC1 | – | 45.2 | – | 2.62 | – | > 100 | – | 8.37 | – | 6.16 | – | 42.8 | – | 41.7 | – | 9.44 | – | 35.5 | – | 5.29 |
